According to PubChem BioAssay (NCI):
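Dose response: 5 concentrations. Exposure: 48 h. Format: 96-well plates. Endpoint: linear interpolation; highest concentration if not reached. Abbreviation: GI50, concentration required for 50% inhibition of growth. TGI is the concentration that stops growth completely.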

Legend:
Experiment in all cases: NCI tumour cell line growth inhibition, 48 h
786-0 renal = system: 786-0 renal
CAKI-1 renal = system: CAKI-1 renal
SF-295 CNS = system: SF-295 CNS
A498 renal = system: A498 renal
SN12C renal = system: SN12C renal
UACC-257 melanoma = system: UACC-257 melanoma
NCI/ADR-RES ovarian = system: NCI/ADR-RES ovarian
EKVX NSCLC = system: EKVX NSCLC
HOP-62 NSCLC = system: HOP-62 NSCLC
COLO 205 colon = system: COLO 205 colon
NCI-H23 lung = system: NCI-H23 lung
HT29 colon = system: HT29 colon
ACHN renal = system: ACHN renal
MCF7 breast = system: MCF7 breast
UACC-62 melanoma = system: UACC-62 melanoma
NCI-H226 lung = system: NCI-H226 lung
OVCAR-4 ovarian = system: OVCAR-4 ovarian
K-562 leukemia = system: K-562 leukemia
SK-MEL-2 melanoma = system: SK-MEL-2 melanoma
A549 NSCLC = system: A549 NSCLC
UO-31 renal = system: UO-31 renal
DU-145 prostate = system: DU-145 prostate
U251 CNS = system: U251 CNS
KM12 colon = system: KM12 colon
MDA-MB-435 = system: MDA-MB-435
NCI-H522 lung = system: NCI-H522 lung
NCI-H460 lung = system: NCI-H460 lung
MDA-MB-231 breast = system: MDA-MB-231 breast
SK-MEL-28 melanoma = system: SK-MEL-28 melanoma
SK-MEL-5 melanoma = system: SK-MEL-5 melanoma
OVCAR-5 ovarian = system: OVCAR-5 ovarian
M14 melanoma = system: M14 melanoma
PC-3 prostate = system: PC-3 prostate
HCT-116 colon = system: HCT-116 colon
SNB-75 CNS = system: SNB-75 CNS
HOP-92 NSCLC = system: HOP-92 NSCLC
MOLT-4 leukemia = system: MOLT-4 leukemia
SF-268 CNS = system: SF-268 CNS
RPMI-8226 leukemia = system: RPMI-8226 leukemia
SW-620 colon = system: SW-620 colon
BT-549 breast = system: BT-549 breast
HCT-15 colon = system: HCT-15 colon
SNB-19 CNS = system: SNB-19 CNS
HCC-2998 colon = system: HCC-2998 colon
TK-10 renal = system: TK-10 renal
SK-OV-3 ovarian = system: SK-OV-3 ovarian
OVCAR-8 ovarian = system: OVCAR-8 ovarian
HS 578T breast = system: HS 578T breast
SR leukemia = system: SR leukemia
OVCAR-3 ovarian = system: OVCAR-3 ovarian
HL-60(TB) leukemia = system: HL-60(TB) leukemia
SF-539 CNS = system: SF-539 CNS
RXF 393 renal = system: RXF 393 renal
CCRF-CEM leukemia = system: CCRF-CEM leukemia
LOX IMVI melanoma = system: LOX IMVI melanoma
MALME-3M melanoma = system: MALME-3M melanoma
T-47D breast = system: T-47D breast
IGROV1 ovarian = system: IGROV1 ovarian

S=c1oc(CCCCCCCCc2nn(CNc3ccccc3)c(=S)o2)nn1CNc1ccccc1
TGI (786-0 renal): > 100 µM | TGI (CAKI-1 renal): > 100 µM | TGI (SF-295 CNS): > 100 µM | TGI (A498 renal): > 100 µM | TGI (SN12C renal): > 100 µM | TGI (UACC-257 melanoma): > 100 µM | TGI (NCI/ADR-RES ovarian): > 100 µM | TGI (EKVX NSCLC): > 100 µM | TGI (HOP-62 NSCLC): > 100 µM | TGI (COLO 205 colon): > 100 µM | TGI (NCI-H23 lung): > 100 µM | TGI (HT29 colon): > 100 µM | TGI (ACHN renal): > 100 µM | TGI (MCF7 breast): > 100 µM | TGI (UACC-62 melanoma): > 100 µM | TGI (NCI-H226 lung): > 100 µM | TGI (OVCAR-4 ovarian): > 100 µM | TGI (K-562 leukemia): > 100 µM | TGI (SK-MEL-2 melanoma): > 100 µM | TGI (A549 NSCLC): > 100 µM | TGI (UO-31 renal): > 100 µM | TGI (DU-145 prostate): > 100 µM | TGI (U251 CNS): > 100 µM | TGI (KM12 colon): > 100 µM | TGI (MDA-MB-435): > 100 µM | TGI (NCI-H522 lung): > 100 µM | TGI (NCI-H460 lung): > 100 µM | TGI (MDA-MB-231 breast): > 100 µM | TGI (SK-MEL-28 melanoma): > 100 µM | TGI (SK-MEL-5 melanoma): > 100 µM | TGI (OVCAR-5 ovarian): > 100 µM | TGI (M14 melanoma): > 100 µM | TGI (PC-3 prostate): > 100 µM | TGI (HCT-116 colon): > 100 µM | TGI (SNB-75 CNS): > 100 µM | TGI (HOP-92 NSCLC): > 100 µM | TGI (MOLT-4 leukemia): > 100 µM | TGI (SF-268 CNS): > 100 µM | TGI (RPMI-8226 leukemia): > 100 µM | TGI (SW-620 colon): > 100 µM | TGI (BT-549 breast): > 100 µM | TGI (HCT-15 colon): > 100 µM | TGI (SNB-19 CNS): > 100 µM | TGI (HCC-2998 colon): > 100 µM | TGI (TK-10 renal): > 100 µM | TGI (SK-OV-3 ovarian): > 100 µM

NC(=O)c1ncn(CC2(COC(=O)c3ccccc3)CCC2)n1
GI50 (SNB-75 CNS): 9.86 µM | TGI (SNB-75 CNS): 92.5 µM | GI50 (BT-549 breast): 82.1 µM

COc1ccc(OC)c2c1C=C[C@H](C1(C)SCCS1)C2C(C)=O (stereo partly drawn)
TGI (786-0 renal): > 100 µM | TGI (CAKI-1 renal): 90 µM | TGI (SF-295 CNS): 65.5 µM | TGI (A498 renal): 78.2 µM | TGI (SN12C renal): > 100 µM | TGI (OVCAR-8 ovarian): > 100 µM | TGI (HS 578T breast): 45.6 µM | TGI (UACC-257 melanoma): > 100 µM | TGI (NCI/ADR-RES ovarian): > 100 µM | TGI (EKVX NSCLC): > 100 µM | TGI (HOP-62 NSCLC): > 100 µM | TGI (NCI-H23 lung): 71.6 µM | TGI (HT29 colon): 33.8 µM | TGI (ACHN renal): > 100 µM | TGI (MCF7 breast): > 100 µM | TGI (UACC-62 melanoma): > 100 µM | TGI (NCI-H226 lung): 63.4 µM | TGI (SR leukemia): 59.2 µM | TGI (OVCAR-4 ovarian): > 100 µM | TGI (K-562 leukemia): > 100 µM | TGI (A549 NSCLC): > 100 µM | TGI (UO-31 renal): 59.7 µM | TGI (DU-145 prostate): 97.9 µM | TGI (U251 CNS): 73.2 µM | TGI (OVCAR-3 ovarian): 61.5 µM | TGI (KM12 colon): 99.5 µM | TGI (HL-60(TB) leukemia): 41.3 µM | TGI (MDA-MB-435): > 100 µM | TGI (SF-539 CNS): 48.2 µM | TGI (RXF 393 renal): 92.3 µM | TGI (NCI-H522 lung): 41.5 µM | TGI (NCI-H460 lung): 76.5 µM | TGI (MDA-MB-231 breast): > 100 µM | TGI (SK-MEL-28 melanoma): > 100 µM | TGI (SK-MEL-5 melanoma): 47.1 µM | TGI (CCRF-CEM leukemia): > 100 µM | TGI (LOX IMVI melanoma): 81.8 µM | TGI (OVCAR-5 ovarian): 65.6 µM | TGI (M14 melanoma): > 100 µM | TGI (PC-3 prostate): > 100 µM | TGI (HCT-116 colon): 65.3 µM | TGI (MALME-3M melanoma): 89.8 µM | TGI (HOP-92 NSCLC): > 100 µM | TGI (MOLT-4 leukemia): 60.6 µM | TGI (SF-268 CNS): > 100 µM | TGI (RPMI-8226 leukemia): 58.6 µM | TGI (T-47D breast): > 100 µM | TGI (IGROV1 ovarian): > 100 µM | TGI (SW-620 colon): > 100 µM | TGI (HCT-15 colon): > 100 µM | TGI (SNB-19 CNS): 81.1 µM | TGI (HCC-2998 colon): > 100 µM | TGI (TK-10 renal): > 100 µM | TGI (SK-OV-3 ovarian): 70.9 µM
